Assay results reported in patent US10138222B2, “Substituted benzamides as RIPK2 inhibitors” (Boehringer Ingelheim International GmbH, priority 2016, dated 2018).
pIC50: −log10 of the molar value.

Molecular target: RIPK2 (Homo sapiens (Human), UniProt O43353)
Experiment: RIPK2 inhibition, ADP-Glo Kinase Assay
Format: biochemical
Conditions: 8His-RIPK2 FL enzyme 8 nM, ATP 5 μM, 15 minutes pre-incubation, 60 minutes at 37° C., luminescence
Description: RIPK2 inhibition for compounds in Table 1 are shown in Table 3 and measured using the following method:
Materials: White, 384-well optiplates (cat.no. 6007290) were purchased from PerkinElmer. The V9103X ADP-Glo Kinase Assay Custom (including ultra-pure ATP) was purchased from Promega. 8His-RIPK2 FL was prepared in-house. All other materials were of highest grade commercially available.
Method: In a 384-well plate, test compound diluted in assay buffer (1% DMSO final) is mixed with 8His-RIPK2 FL enzyme (final concentration of 8 nM). After 15 minutes of pre-incubation at RT, ATP dissolved in assay buffer is added (final concentration 5 μM). The mixture is incubated for 60 minutes at 37° C. in a humidified incubator. Then, ADP Glo Reagent is added, followed by a 40 minute incubation at rt. Finally, Kinase Detection Reagent is added and the entire mixture is incubated for 40 min at RT. The luminescence signal is measured with an Envision reader to determine the amount of ADP produced. Assay buffer: 25 mM HEPES (4-(2-hydroxyethyl)-1-piperazinethanesulfonic acid), 0.1% BSA (bovine serum albumin), 10 mM MgCl2, 5 mM MnCl2, 50 mM KCl, 0.01% CHAPS (3-[(3-cholamidopropyl)dimethylammonio]-1-propanesulfonate), 10 μM Na3VO4, 1 mM DTT (dithiothreitol), pH 7.5 All plates contain wells with vehicle controls instead of compound (1% DMSO) as reference for the high signal (100% CTL (100% of control), high signal), and wells without enzyme as reference for low signal (0% CTL, low signal). The luminescent signal generated is proportional to the ADP produced and is correlated with enzyme activity. The analysis of the data is performed by the calculation of the percentage of ADP production in the presence of the test compound and RIPK2 as compared to the ADP production in the presence of RIPK2 plus 50 μM Gefitinib. (RLU (relative luminescence units) (sample)−RLU(low control))*100/(RLU(high value)−RLU(low control)) [RLU=relative luminescence units].

Chain of RIPK2 (O43353 whole entry): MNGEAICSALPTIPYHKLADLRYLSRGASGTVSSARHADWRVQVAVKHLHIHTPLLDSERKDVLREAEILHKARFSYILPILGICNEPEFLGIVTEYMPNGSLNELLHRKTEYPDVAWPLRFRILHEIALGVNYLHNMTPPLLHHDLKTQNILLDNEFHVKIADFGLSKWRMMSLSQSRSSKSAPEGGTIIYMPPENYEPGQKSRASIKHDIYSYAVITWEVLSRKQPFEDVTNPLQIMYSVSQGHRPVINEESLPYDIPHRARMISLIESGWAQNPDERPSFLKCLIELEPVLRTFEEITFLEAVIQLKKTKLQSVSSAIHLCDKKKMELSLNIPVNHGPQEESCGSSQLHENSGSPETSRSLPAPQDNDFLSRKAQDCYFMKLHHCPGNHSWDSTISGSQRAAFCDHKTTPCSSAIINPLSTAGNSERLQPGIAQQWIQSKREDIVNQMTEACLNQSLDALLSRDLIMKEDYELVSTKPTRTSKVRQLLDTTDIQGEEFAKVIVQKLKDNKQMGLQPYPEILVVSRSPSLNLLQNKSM

Structure (SMILES) | pIC50
Cc1ccc(C(=O)NC2CC2)cc1-c1cnn(-c2cncc(NC(=O)NC3CC3)c2)c1 [Example 108, N-cyclopropyl-3-(1-{5-[(cyclopropylcarbamoyl)amino]pyridin-3-yl}-1H-pyrazol-4-yl)-4-methylbenzamide] | 8.36
Cc1ccc(C(=O)NC2CC2)cc1-c1cnn(-c2cncc(NC(=O)NC3CCC3)c2)c1 [Example 109, 3-(1-{5-[(cyclobutylcarbamoyl)amino]pyridin-3-yl}-1H-pyrazol-4-yl)-N-cyclopropyl-4-methylbenzamide] | 8.44
Cc1ccc(C(=O)NC2CC2)cc1-c1cnn(-c2cncc(NC(=O)C3CCC3)c2)c1 [Example 115, 3-[1-(5-cyclobutaneamidopyridin-3-yl)-1H-pyrazol-4-yl]-N-cyclopropyl-4-methylbenzamide] | 8.57
Cc1ccc(C(=O)NC2CC2)cc1-c1cnn(-c2cncc(NC(=O)CF)c2)c1 [Example 116, N-cyclopropyl-3-{1-[5-(2-fluoroacetamido)pyridin-3-yl]-1H-pyrazol-4-yl}-4-methylbenzamide] | 8.14
CC(=O)N1CC(Oc2cncc(-n3cc(-c4cc(C(=O)NC5CC5)ccc4C)cn3)c2)C1 [Example 124, 3-(1-{5-[(1-acetylazetidin-3-yl)oxy]pyridin-3-yl}-1H-pyrazol-4-yl)-N-cyclopropyl-4-methylbenzamide] | 7.89
CC(=O)N1CC[C@@H](Oc2cncc(-n3cc(-c4cc(C(=O)NC5CC5)ccc4C)cn3)c2)C1 [Example 126, 3-[1-(5-{[(3R)-1-acetylpyrrolidin-3-yl]oxy}pyridin-3-yl)-1H-pyrazol-4-yl]-N-cyclopropyl-4-methyl-benzamide] | 7.70
CC(=O)N1CC[C@H](Oc2cncc(-n3cc(-c4cc(C(=O)NC5CC5)ccc4C)cn3)c2)C1 [Example 129, 3-[1-(5-{[(3S)-1-acetylpyrrolidin-3-yl]oxy}pyridin-3-yl)-1H-pyrazol-4-yl]-N-cyclopropyl-4-methyl-benzamide] | 7.36
Cc1ccc(C(=O)NC2CC2)cc1-c1cnn(-c2cncc(CN3CCOCC3=O)c2)c1 [Example 135, N-cyclopropyl-4-methyl-3-(1-{5-[(3-oxomorpholin-4-yl)methyl]pyridin-3-yl}-1H-pyrazol-4-yl)benzamide] | 6.92
Cc1ccc(C(=O)NC2CC2)cc1-c1cnn(-c2cncc(C(C)N3CCCCS3(=O)=O)c2)c1 (centres unmarked) [Example 136, N-cyclopropyl-3-(1-{5-[1-(1,1-dioxo-1λ^6,2-thiazinan-2-yl)ethyl]pyridin-3-yl}-1H-pyrazol-4-yl)-4-methyl-benzamide] | 7.37
Cc1ccc(C(=O)NC2CC2)cc1-c1cnn(-c2cncc(C3(O)CCOCC3)c2)c1 [Example 137, N-cyclopropyl-3-{1-[5-(4-hydroxy-oxan-4-yl)pyridin-3-yl]-1H-pyrazol-4-yl}-4-methylbenzamide] | 6.92
Cc1ccc(C(=O)NC2CC2)cc1-c1cnn(-c2cncc(C3(O)CCOC3)c2)c1 (centres unmarked) [Example 138, N-cyclopropyl-3-{1-[5-(3-hydroxy-oxolan-3-yl)pyridin-3-yl]-1H-pyrazol-4-yl}-4-methylbenzamide] | 7.60
Cc1ccc(C(=O)NC2CC2)cc1-c1cnn(-c2cncc(NC(=O)NC3CCOC3)c2)c1 (centres unmarked) [Example 142, N-cyclopropyl-4-methyl-3-[1-(5-{[(oxolan-3-yl)carbamoyl]amino}pyridin-3-yl)-1H-pyrazol-4-yl] benzamide] | 8.49
COCCC(=O)Nc1cncc(-n2cc(-c3cc(C(=O)NC4CC4)ccc3C)cn2)c1 [Example 143, N-cyclopropyl-3-{1-[5-(3-methoxypropanamido)pyridin-3-yl]-1H-pyrazol-4-yl}-4-methylbenzamide] | 8.21
Cc1ccc(C(=O)NC2CC2)cc1-c1cnn(-c2cncc(NC(=O)C3CC3)c2)c1 [Example 144, 3-[1-(5-cyclopropaneamidopyridin-3-yl)-1H-pyrazol-4-yl]-N-cyclo-propyl-4-methylbenzamide] | 8.54
Cc1ccc(C(=O)NC2CC2)cc1-c1cnn(-c2cncc(OC3CCOC3)c2)c1 (centres unmarked) [Example 145, N-cyclopropyl-4-methyl-3-{1-[5-(oxolan-3-yloxy)pyridin-3-yl]-1H-pyrazol-4-yl}benzamide] | 8.33

Further lines, results first:

pIC50 | Structure (SMILES)
8.47 | Cc1ccc(C(=O)NC2CC2)cc1-c1cnn(-c2cncc(NC(=O)NC(C)C)c2)c1 [Example 110, N-cyclopropyl-4-methyl-3-[1-(5-{[(propan-2-yl)carbamoyl]amino}pyridin-3-yl)-1H-pyrazol-4-yl] benzamide]
8.28 | CC(=O)Nc1cncc(-n2cc(-c3cc(C(=O)NC4CC4)ccc3C)cn2)c1 [Example 111, N-cyclopropyl-3-[1-(5-acetamido-pyridin-3-yl)-1H-pyrazol-4-yl]-4-methylbenzamide]
8.11 | COCC(=O)Nc1cncc(-n2cc(-c3cc(C(=O)NC4CC4)ccc3C)cn2)c1 [Example 112, N-cyclopropyl-3-{1-[5-(2-methoxyacetamido)pyridin-3-yl]-1H-pyrazol-4-yl}-4-methylbenzamide]
8.46 | Cc1ccc(C(=O)NC2CC2)cc1-c1cnn(-c2cncc(NC(=O)C(C)C)c2)c1 [Example 113, N-cyclopropyl-4-methyl-3-{1-[5-(2-methylpropanamido)pyridin-3-yl]-1H-pyrazol-4-yl}benzamide]
8.57 | Cc1ccc(C(=O)NC2CC2)cc1-c1cnn(-c2cncc(NC(=O)CC(C)C)c2)c1 [Example 114, N-cyclopropyl-4-methyl-3-{1-[5-(3-methylbutanamido)pyridin-3-yl]-1H-pyrazol-4-yl}benzamide]
8.47 | CCC(=O)Nc1cncc(-n2cc(-c3cc(C(=O)NC4CC4)ccc3C)cn2)c1 [Example 117, N-cyclopropyl-4-methyl-3-[1-(5-propanamidopyridin-3-yl)-1H-pyrazol-4-yl]benzamide]
6.96 | Cc1ccc(C(=O)NC2CC2)cc1-c1cnn(-c2cncc(N(C)C)n2)c1 [Example 118, N-cyclopropyl-3-{1-[6-(dimethylamino)pyrazin-2-yl]-1H-pyrazol-4-yl}-4-methylbenzamide]
7.62 | Cc1cncc(-n2cc(-c3cc(C(=O)NC4CC4)ccc3C)cn2)c1 [Example 119, N-cyclopropyl-4-methyl-3-[1-(5-methylpyridin-3-yl)-1H-pyrazol-4-yl]benzamide]
7.89 | Cc1ccc(C(=O)NC2CC2)cc1-c1cnn(-c2cncc(NC(=O)C(C)(C)C)c2)c1 [Example 121, N-cyclopropyl-3-{1-[5-(2,2-dimethylpropanamido)pyridin-3-yl]-1H-pyrazol-4-yl}-4-methyl-benzamide]
8.02 | Cc1ccc(C(=O)NC2CC2)cc1-c1cnn(-c2cncc(NS(C)(=O)=O)c2)c1 [Example 122, N-cyclopropyl-3-[1-(5-methanesulfonamidopyridin-3-yl)-1H-pyrazol-4-yl]-4-methyl-benzamide]
7.37 | CN(C)c1cncc(-n2cc(-c3cc(C(=O)NC4CC4)c(F)cc3Cl)cn2)n1 [Example 123, 4-chloro-N-cyclopropyl-5-{1-[6-(dimethylamino)pyrazin-2-yl]-1H-pyrazol-4-yl}-2-fluorobenzamide]
6.89 | Cc1ccc(C(=O)NC2CC2)cc1-c1cnn(-c2cncc([C@H]3CCC(=O)N3C)c2)c1 [Example 125, N-cyclopropyl-4-methyl-3-(1-{5-[(2R)-1-methyl-5-oxopyrrolidin-2-yl]pyridin-3-yl}-1H-pyrazol-4-yl)benzamide]
7.07 | COc1cncc(-n2cc(-c3cc(C(=O)NC4CC4)ccc3C)cn2)n1 [Example 127, N-cyclopropyl-3-[1-(6-methoxy-pyrazin-2-yl)-1H-pyrazol-4-yl]-4-methylbenzamide]
7.03 | Cc1ccc(C(=O)NC2CC2)cc1-c1cnn(-c2cncc(C3CCOCC3)n2)c1 [Example 128, N-cyclopropyl-4-methyl-3-{1-[6-(oxan-4-yl)pyrazin-2-yl]-1H-pyrazol-4-yl}benzamide]
7.96 | Cc1ccc(C(=O)NC2CC2)cc1-c1cnn(-c2cncc(C3(C#N)CC3)c2)c1 [Example 131, 3-{1-[5-(1-cyanocyclopropyl)pyridin-3-yl]-1H-pyrazol-4-yl}-N-cyclo-propyl-4-methylbenzamide]
7.42 | Cc1ccc(C(=O)NC2CC2)cc1-c1cnn(-c2cncc(C(C)N3CCCC3=O)c2)c1 (centres unmarked) [Example 140, N-cyclopropyl-4-methyl-3-(1-{5-[1-(2-oxopyrrolidin-1-yl)ethyl]pyridin-3-yl}-1H-pyrazol-4-yl)benzamide]
8.59 | CNc1cncc(-n2cc(-c3cc(C(=O)NC4CC4)ccc3C)cn2)c1 [Example 141, N-cyclopropyl-4-methyl-3-{1-[5-(methylamino)pyridin-3-yl]-1H-pyrazol-4-yl}benzamide]
